Measured values published in US20240043860A1, “NOVEL HYDROXYPHENYLPYRUVATE DIOXYGENASE POLYPEPTIDES AND METHODS OF USE THEREOF” (Syngenta Crop Protection AG, priority 2020, published 2024).
Read-outs that look alike come from different tables or passages of the source.

Assays:
[1] = tested on: HPPD variant ALOME V162 (SEQ ID NO: 126); assay: coupled HGO assay; assay type: biochemical, Alopecurus myosuroides
Method: DNA sequences (SEQ ID NOs: 65-118, 128, 130, 131, and 133), synthesized for expression in E. coli, by GeneWiz (USA) to encode HPPD variants (SEQ ID NOs: 5-58, 122, 124, 125 and 127) derived from either Avena sativa (SEQ ID NOs: 122, 124), Alopecurus myosuroides (SEQ ID NO: 126) or Apera spica-venti (SEQ ID NOs: 123, 125) were transformed into E coli BL21 (DE3) (New England Biolabs) and grown in 0.5 ml Terrific broth +50 ug/ml Kanamycin media in a 96-deepwell block overnight (37° C., 900rpm). 25 ul of the overnight cultures were inoculated into fresh 96-deepwell block containing 1 ml Formedium Autoinduction Media (AIM). The AIM cultures were grown for 3h at 37° C. (900rpm) and then transferred to 20° C. overnight (900rpm) to allow protein expression. The overnight cultures were centrifuged and 500 ul of Cellytic B (Sigma Aldrich) was added to resuspend the cell pellets. The coupled HGO assay (Siehl et al, 2014) is used to generate IC50 values for the HPPD variants of interest.
(§1) E. coli BL21 (DE3) cells were transformed with a pET24a vector containing a C-terminally his-tagged Arabidopsis HGO gene, grown and induced overnight as described for the HPPD variants above. The cell pellet was resuspended in phosphate buffered saline at pH 7.4 containing 10% Glycerol, 1mm Tris[2-carboxyethyl] phosphine-HCl (TCEP) plus 30 mM Imidazole and lysed using lysozyme/benzonase. The extract was clarified by low speed centrifugation and purified in the same buffer down a 1 ml His Gravitrap column. The bound HGO was eluted in 0.25M imidazole and the fractions pooled and beaded into liquid nitrogen. All procedures apart from the centrifugation and beading steps were carried out under a nitrogen atmosphere.
(§2) The coupled HGO assay is carried out by adding 10 ul of HPPD extract to a 96-well plate and then adding 40 ul of reaction buffer (50 mM Bis Tris Propane, pH7.0, 25 mM sodium-L-ascorbate, 400μM mercaptoethanol, 50 μM Fe(II)SO4). The plates are left to incubate for 5 minutes on ice. […] 200 ul of HPP/HGO (197 μM hydroxyphenylpyruvic acid, 16 μl/ml Homogentisic Acid Oxidase in reaction buffer as described above) buffer is then added to the well and the reaction is regularly monitored (e.g. every 30 seconds-5 minutes) for absorbance at 330 nm for a given time period (e.g., for between 15-60 minutes). The data can then be used to calculate the IC50 value for each HPPD variant of interest.

[2] = tested on: HPPD variant AVESA V349 (SEQ ID NO: 47); assay: biochemical; assay type: biochemical, Avena sativa
Method: (§3) 25 ul of the overnight cultures were inoculated into fresh 96-deepwell block containing 1 ml Formedium Autoinduction Media (AIM). The AIM cultures were grown for 3h at 37° C. (900rpm) and then transferred to 20° C. overnight (900rpm) to allow protein expression. The overnight cultures were centrifuged and 500 ul of Cellytic B (Sigma Aldrich) was added to resuspend the cell pellets. The coupled HGO assay (Siehl et al, 2014) is used to generate IC50 values for the HPPD variants of interest.
as §1, §2

[3] = target: HPPD variant AVESA V349 (SEQ ID NO: 47) (Avena sativa, UniProt A0ACD5V6K6, A327R/I340E/L359M/P271N/S304T/V218I); assay: biochemical; assay type: biochemical
Sequence of HPPD variant AVESA V349 (SEQ ID NO: 47) (Avena sativa, UniProt A0ACD5V6K6, A327R/I340E/L359M/P271N/S304T/V218I) (A0ACD5V6K6 entry or part of it V218I/P271N/S304T/A327R/I340E/L359M): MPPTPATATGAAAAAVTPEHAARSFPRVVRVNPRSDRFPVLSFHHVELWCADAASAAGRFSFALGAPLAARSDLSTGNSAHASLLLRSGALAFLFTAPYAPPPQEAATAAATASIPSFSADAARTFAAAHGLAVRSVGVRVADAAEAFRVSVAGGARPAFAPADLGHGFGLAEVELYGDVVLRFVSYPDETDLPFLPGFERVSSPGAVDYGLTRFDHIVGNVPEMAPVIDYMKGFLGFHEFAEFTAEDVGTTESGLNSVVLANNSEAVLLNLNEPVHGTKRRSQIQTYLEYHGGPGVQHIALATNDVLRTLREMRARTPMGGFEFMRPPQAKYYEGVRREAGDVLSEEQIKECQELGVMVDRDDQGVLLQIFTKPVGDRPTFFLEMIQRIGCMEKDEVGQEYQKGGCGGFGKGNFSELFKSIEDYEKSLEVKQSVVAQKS
Method: as §3, §1, §2

[4] = tested on: HPPD variant AVESA V357 (SEQ ID NO: 53); assay: biochemical; assay type: biochemical, Avena sativa
Method: as §3, §1, §2

[5] = target: HPPD variant AVESA V357 (SEQ ID NO: 53) (Avena sativa, UniProt A0ACD5V6K6, A327R/I340E/L359M/P271N/R214G/S304T/V218I); assay: biochemical; assay type: biochemical
Sequence of HPPD variant AVESA V357 (SEQ ID NO: 53) (Avena sativa, UniProt A0ACD5V6K6, A327R/I340E/L359M/P271N/R214G/S304T/V218I) (A0ACD5V6K6 entry or part of it R214G/V218I/P271N/S304T/A327R/I340E/L359M): as the sequence (A0ACD5V6K6 entry or part of it V218I/P271N/S304T/A327R/I340E/L359M) above, with R214G counted along it
Method: as §3, §1, §2

[6] = target: HPPD variant AVESA V208 (SEQ ID NO: 14) (Avena sativa, UniProt A0ACD5V6K6, A327R/I340E/L359M/P271N/V218I); assay: biochemical; assay type: biochemical
Sequence of HPPD variant AVESA V208 (SEQ ID NO: 14) (A0ACD5V6K6 entry or part of it V218I/P271N/A327R/I340E/L359M): as the sequence (A0ACD5V6K6 entry or part of it V218I/P271N/S304T/A327R/I340E/L359M) above, with T304S counted along it
Method: as §3, §1, §2

[7] = target: HPPD variant AVESA V313 (SEQ ID NO: 38) (Avena sativa, UniProt A0ACD5V6K6, A327R/I340E/L359Y/P271N/R214G/V218I/V260A); assay: biochemical; assay type: biochemical
Sequence of HPPD variant AVESA V313 (SEQ ID NO: 38) (A0ACD5V6K6 entry or part of it R214G/V218I/V260A/P271N/A327R/I340E/L359Y): as the sequence (A0ACD5V6K6 entry or part of it V218I/P271N/S304T/A327R/I340E/L359M) above, with R214G, V260A, T304S, M359Y counted along it
Method: as §3, §1, §2

[8] = target: HPPD variant AVESA V358 (SEQ ID NO: 56) (Avena sativa, UniProt A0ACD5V6K6, A327R/I340E/L359M/P271N/R214G/S304T/V218I/V260A); assay: biochemical; assay type: biochemical
Sequence of HPPD variant AVESA V358 (SEQ ID NO: 56) (A0ACD5V6K6 entry or part of it R214G/V218I/V260A/P271N/S304T/A327R/I340E/L359M): as the sequence (A0ACD5V6K6 entry or part of it V218I/P271N/S304T/A327R/I340E/L359M) above, with R214G, V260A counted along it
Method: as §3, §1, §2

[9] = target: HPPD variant AVESA V306 (SEQ ID NO: 32) (Avena sativa, UniProt A0ACD5V6K6, A327R/I340E/L359M/P271N/R214G/V218I); assay: biochemical; assay type: biochemical
Sequence of HPPD variant AVESA V306 (SEQ ID NO: 32) (A0ACD5V6K6 entry or part of it R214G/V218I/P271N/A327R/I340E/L359M): as the sequence (A0ACD5V6K6 entry or part of it V218I/P271N/S304T/A327R/I340E/L359M) above, with R214G, T304S counted along it
Method: as §3, §1, §2

[10] = target: HPPD variant AVESA V296 (SEQ ID NO: 20) (Avena sativa, UniProt A0ACD5V6K6, A327R/G411A/I340E/L359Y/R214G/V218I); assay: biochemical; assay type: biochemical
Sequence of HPPD variant AVESA V296 (SEQ ID NO: 20) (A0ACD5V6K6 entry or part of it R214G/V218I/A327R/I340E/L359Y/G411A): as the sequence (A0ACD5V6K6 entry or part of it V218I/P271N/S304T/A327R/I340E/L359M) above, with R214G, N271P, T304S, M359Y, G411A counted along it
Method: as §3, §1, §2

[11] = target: HPPD variant AVESA V180 (SEQ ID NO: 124) (Avena sativa, UniProt A0ACD5V6K6, A327R/G411A/I340E/L359M/V218I); assay: biochemical; assay type: biochemical
Sequence of HPPD variant AVESA V180 (SEQ ID NO: 124) (A0ACD5V6K6 entry or part of it V218I/A327R/I340E/L359M/G411A): as the sequence (A0ACD5V6K6 entry or part of it V218I/P271N/S304T/A327R/I340E/L359M) above, with N271P, T304S, G411A counted along it
Method: as §3, §1, §2

[12] = target: HPPD variant AVESA V332 (SEQ ID NO: 44) (Avena sativa, UniProt A0ACD5V6K6, A327R/I340E/K404N/L359M/P271N/R214G/V218I/V260A); assay: biochemical; assay type: biochemical
Sequence of HPPD variant AVESA V332 (SEQ ID NO: 44) (A0ACD5V6K6 entry or part of it R214G/V218I/V260A/P271N/A327R/I340E/L359M/K404N): as the sequence (A0ACD5V6K6 entry or part of it V218I/P271N/S304T/A327R/I340E/L359M) above, with R214G, V260A, T304S, K404N counted along it
Method: as §3, §1, §2

[13] = target: HPPD variant AVESA V351 (SEQ ID NO: 50) (Avena sativa, UniProt A0ACD5V6K6, A327R/G411A/I340E/L359Y/R214G/S304T/V218I); assay: biochemical; assay type: biochemical
Sequence of HPPD variant AVESA V351 (SEQ ID NO: 50) (A0ACD5V6K6 entry or part of it R214G/V218I/S304T/A327R/I340E/L359Y/G411A): as the sequence (A0ACD5V6K6 entry or part of it V218I/P271N/S304T/A327R/I340E/L359M) above, with R214G, N271P, M359Y, G411A counted along it
Method: as §3, §1, §2

[14] = target: HPPD variant AVESA V162 (SEQ ID NO: 122) (Avena sativa, UniProt A0ACD5V6K6, A327R/I340E/L359M/V218I); assay: biochemical; assay type: biochemical
Sequence of HPPD variant AVESA V162 (SEQ ID NO: 122) (A0ACD5V6K6 entry or part of it V218I/A327R/I340E/L359M): as the sequence (A0ACD5V6K6 entry or part of it V218I/P271N/S304T/A327R/I340E/L359M) above, with N271P, T304S counted along it
Method: as §3, §1, §2

[15] = AVESA V349, SEQ ID NO: 47, read-out: IC50
[16] = AVESA V357, SEQ ID NO: 53, read-out: IC50
[17] = AVESA V208, SEQ ID NO: 14, read-out: IC50
[18] = AVESA V313, SEQ ID NO: 38, read-out: IC50
[19] = AVESA V358, SEQ ID NO: 56, read-out: IC50
[20] = AVESA V306, SEQ ID NO: 32, read-out: IC50
[21] = AVESA V296, SEQ ID NO: 20, read-out: IC50
[22] = AVESA V180, SEQ ID NO: 124, read-out: IC50
[23] = AVESA V332, SEQ ID NO: 44, read-out: IC50
[24] = AVESA V351, SEQ ID NO: 50, read-out: IC50
[25] = AVESA V162, SEQ ID NO: 122, read-out: IC50

bicyclopyrone
IC50 [1]: 0.53 µM
IC50 fold improvement compared to SEQ ID NO: 122 [2]: 27 ×
IC50 [3, 15]: 10.2 µM
IC50 fold improvement over SEQ ID NO: 122 [4]: 110 ×
IC50 [5, 16]: 42.1 µM
IC50 [6, 17]: 39.3 µM
IC50 [7, 18]: < 0.39 µM
IC50 [8, 19]: < 0.39 µM
IC50 [9, 20]: 10.2 µM
IC50 [10, 21]: > 500 µM
IC50 [11, 22]: 55.6 µM
IC50 [12, 23]: 102 µM
IC50 [13, 24]: > 500 µM
IC50 [14, 25]: 0.38 µM

Cn1nnnc1NC(=O)c1ccc(C(F)(F)F)nc1-n1cncn1 [Herbicide D, N-(1-methyltetrazol-5-yl)-2-(1,2,4-triazol-1-yl)-6-(trifluoromethyl)pyridine-3-carboxamide]
IC50 [1]: 10.5 µM
IC50 fold improvement compared to SEQ ID NO: 122 [2]: 29 ×
IC50 [3]: 197 µM
IC50 fold improvement over SEQ ID NO: 122 [4]: 36 ×
IC50 [5]: 243 µM
IC50 [6]: 182 µM
IC50 [7]: 205 µM
IC50 [8]: 177 µM
IC50 [9]: 129 µM
IC50 [10]: > 500 µM
IC50 [11]: > 500 µM
IC50 [12]: 134 µM
IC50 [13]: > 500 µM
IC50 [14]: 6.73 µM

COc1ccc(-n2nc(C)cc(C(=O)C3C(=O)CCCC3=O)c2=O)cc1OC [Herbicide C, dioxopyritrione]
IC50 [1]: 0.25 µM
IC50 fold improvement compared to SEQ ID NO: 122 [2]: > 200 ×
IC50 [3, 15]: > 50 µM
IC50 fold improvement over SEQ ID NO: 122 [4]: no improvement
IC50 [5, 16]: 0.28 µM
IC50 [6, 17]: > 50 µM
IC50 [7, 18]: ~0.2 µM
IC50 [8, 19]: < 0.19 µM
IC50 [9, 20]: > 50 µM
IC50 [10, 21]: 1.3 µM
IC50 [11, 22]: 0.61 µM
IC50 [12, 23]: > 50 µM
IC50 [13, 24]: 14.3 µM
IC50 [14, 25]: 0.25 µM
